Source: patent publication US12428412B2 (DANA-FARBER CANCER INSTITUTE, INC., priority 2018, dated 2025)

Assays:
Format in all cases: cell-based
CBP = molecular target: T1, CBP (Homo sapiens, UniProt Q92793); experiment: Cellular degradation assay (immunoblot) in Kelly NB cells, CBP
T1 construct: endogenous in cells; host or cells: Kelly neuroblastoma cells (incl. Ch2.2, LACZ and CRBN knockout lines)
Description: Kelly Neuroblastoma cells were seeded at 1,000,000 cells per well in 6 well plates and were treated in a dose-dependent manner for 24 to 72 hours. Whole cell lysates were collected using ice cold lysis buffer [300 mM NaCl, 50 mM Tris-HCl, pH 7.5, 0.5% Triton X-100, 1% SDS, 1 mM dithiothreitol (DTT), Roche® protease inhibitor cocktail (1:000), 25 units/mL Benzonase] and blotted at a protein concentration of 20 μg. Histone extraction was performed using the EpiQuik™ Total Histone Extraction Kit (OP-0006-100, Epigentek) and blotted at a protein concentration of 4 μg.
Whole cell lysates were resolved in NuPAGE® 3-8% Tris-Acetate polyacrylamide gels (EA03785BOX, Invitrogen™) and histone extraction lysates in Bolt 4-12% Bis-Tris polyacrylamide gels (NWO4125BOX, Invitrogen™). Afterwards, gels were transferred to nitrocellulose membranes (LC2001, Invitrogen™). […]
The experimental protocol is the same as in Example 24. The protein level was determined by immunoblot using EP300 antibody, CBP antibody or H3K27ac antibody. […]

EP300 = molecular target: T2, EP300 (Homo sapiens, UniProt Q09472); experiment: Proteomics analysis in Kelly NB cells, EP300; conditions: 500 nM, 6 hours and 36 hours
T2 construct: Whole cell lysates were collected using ice cold lysis buffer; endogenous in cells; host or cells: Kelly neuroblastoma cells (incl. Ch2.2, LACZ and CRBN knockout lines)
Description: FIG. 9C is a plot of the proteomics analysis results after treating Kelly NB cells with CPD 1 (500 nM) at 6 hours and 36 hours.

U266 cells = experiment: 6-day MTT assay, U266 cells; conditions: 0-10 μM
Description: (§1) Media from cell cultures was discarded. For adherent cells, the media was carefully aspirated. For suspension cells, the 96 well plate at 1,000×g, 4° C., was spun for 5 minutes in a microplate-compatible centrifuge and the media was carefully aspirated. The volume of existing media has to be the same for each sample. Fifty (50) μL of serum-free media and 50 μL of MTT solution were added into each well. The plate was incubated at 37° C. for 3 hours.
(§2) After incubation, 150 μL of MTT solvent were added into each well. The plate was wrapped in foil and shaken on an orbital shaker for 15 minutes. Absorbance was read at OD=590 nm. Reading was performed within 1 hour.

CRBN k/o cell lines = experiment: Cell viability in CRBN knockout Kelly cell lines
Description: CPD 1 was tested in CRBN knockout (k/o) Kelly cell lines. The experimental protocol is the same as in Example 24.

MM.1S cells = experiment: 6-day MTT assay, MM.1S cells; conditions: 0-10 μM
Description: as §1, §2

T1 sequence (Q92793 whole entry): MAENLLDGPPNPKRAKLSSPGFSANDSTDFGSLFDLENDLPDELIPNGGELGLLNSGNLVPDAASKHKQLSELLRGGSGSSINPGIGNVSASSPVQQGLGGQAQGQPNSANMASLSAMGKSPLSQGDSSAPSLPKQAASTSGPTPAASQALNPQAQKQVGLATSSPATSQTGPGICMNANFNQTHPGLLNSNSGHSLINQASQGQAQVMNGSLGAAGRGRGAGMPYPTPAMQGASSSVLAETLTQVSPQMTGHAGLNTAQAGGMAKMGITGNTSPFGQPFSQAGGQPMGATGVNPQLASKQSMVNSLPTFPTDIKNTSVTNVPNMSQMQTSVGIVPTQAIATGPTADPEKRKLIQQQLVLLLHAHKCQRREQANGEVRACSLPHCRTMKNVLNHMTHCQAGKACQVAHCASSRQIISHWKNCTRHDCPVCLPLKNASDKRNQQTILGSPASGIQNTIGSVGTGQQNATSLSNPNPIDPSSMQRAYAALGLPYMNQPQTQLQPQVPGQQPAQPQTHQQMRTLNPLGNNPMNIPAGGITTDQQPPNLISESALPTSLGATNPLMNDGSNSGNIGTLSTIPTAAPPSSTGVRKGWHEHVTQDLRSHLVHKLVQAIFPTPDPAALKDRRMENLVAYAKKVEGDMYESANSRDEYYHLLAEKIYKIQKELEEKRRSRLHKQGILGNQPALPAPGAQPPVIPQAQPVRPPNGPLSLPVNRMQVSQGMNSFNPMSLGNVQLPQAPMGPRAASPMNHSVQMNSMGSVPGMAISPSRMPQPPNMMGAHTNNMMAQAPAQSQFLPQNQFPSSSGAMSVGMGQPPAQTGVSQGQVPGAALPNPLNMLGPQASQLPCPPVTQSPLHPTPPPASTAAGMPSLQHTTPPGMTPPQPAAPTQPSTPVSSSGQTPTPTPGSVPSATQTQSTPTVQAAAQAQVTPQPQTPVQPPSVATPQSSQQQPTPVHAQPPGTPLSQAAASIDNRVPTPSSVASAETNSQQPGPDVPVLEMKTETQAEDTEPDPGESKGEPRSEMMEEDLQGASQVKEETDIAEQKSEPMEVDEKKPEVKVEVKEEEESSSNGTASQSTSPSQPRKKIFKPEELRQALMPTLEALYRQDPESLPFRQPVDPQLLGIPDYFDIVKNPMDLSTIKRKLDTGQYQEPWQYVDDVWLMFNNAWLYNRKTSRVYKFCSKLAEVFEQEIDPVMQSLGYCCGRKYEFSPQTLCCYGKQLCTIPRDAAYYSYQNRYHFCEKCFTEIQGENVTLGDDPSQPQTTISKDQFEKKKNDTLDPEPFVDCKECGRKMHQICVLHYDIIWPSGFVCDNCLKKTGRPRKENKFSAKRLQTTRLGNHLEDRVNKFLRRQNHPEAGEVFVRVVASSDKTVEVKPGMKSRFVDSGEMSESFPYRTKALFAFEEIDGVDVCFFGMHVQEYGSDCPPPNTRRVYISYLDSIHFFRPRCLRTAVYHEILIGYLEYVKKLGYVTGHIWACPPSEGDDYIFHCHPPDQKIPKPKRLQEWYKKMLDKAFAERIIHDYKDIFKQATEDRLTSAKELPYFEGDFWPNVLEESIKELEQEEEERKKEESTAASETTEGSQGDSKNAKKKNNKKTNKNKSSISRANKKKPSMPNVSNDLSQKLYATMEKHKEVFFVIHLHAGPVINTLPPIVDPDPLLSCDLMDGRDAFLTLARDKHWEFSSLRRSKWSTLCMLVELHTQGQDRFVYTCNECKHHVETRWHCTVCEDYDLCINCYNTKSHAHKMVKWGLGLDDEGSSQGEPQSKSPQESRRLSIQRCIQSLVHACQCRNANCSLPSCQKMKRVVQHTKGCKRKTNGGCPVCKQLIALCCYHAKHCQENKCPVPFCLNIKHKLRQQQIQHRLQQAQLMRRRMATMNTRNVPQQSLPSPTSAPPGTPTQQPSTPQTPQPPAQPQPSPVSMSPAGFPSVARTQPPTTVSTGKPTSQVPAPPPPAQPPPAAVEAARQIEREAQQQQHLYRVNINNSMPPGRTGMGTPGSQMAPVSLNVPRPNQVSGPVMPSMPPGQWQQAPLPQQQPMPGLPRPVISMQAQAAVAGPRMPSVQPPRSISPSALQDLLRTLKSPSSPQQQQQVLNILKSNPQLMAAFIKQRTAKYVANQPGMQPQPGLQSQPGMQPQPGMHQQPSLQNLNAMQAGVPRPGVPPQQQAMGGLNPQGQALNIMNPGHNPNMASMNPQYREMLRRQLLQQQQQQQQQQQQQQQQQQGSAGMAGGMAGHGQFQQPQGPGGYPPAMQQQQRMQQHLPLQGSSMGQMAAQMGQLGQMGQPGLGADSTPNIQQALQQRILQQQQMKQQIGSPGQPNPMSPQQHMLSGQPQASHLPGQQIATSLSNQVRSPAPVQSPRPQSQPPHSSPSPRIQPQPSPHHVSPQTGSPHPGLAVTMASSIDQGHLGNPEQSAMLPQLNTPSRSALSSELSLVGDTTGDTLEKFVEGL
T2 sequence (Q09472 whole entry): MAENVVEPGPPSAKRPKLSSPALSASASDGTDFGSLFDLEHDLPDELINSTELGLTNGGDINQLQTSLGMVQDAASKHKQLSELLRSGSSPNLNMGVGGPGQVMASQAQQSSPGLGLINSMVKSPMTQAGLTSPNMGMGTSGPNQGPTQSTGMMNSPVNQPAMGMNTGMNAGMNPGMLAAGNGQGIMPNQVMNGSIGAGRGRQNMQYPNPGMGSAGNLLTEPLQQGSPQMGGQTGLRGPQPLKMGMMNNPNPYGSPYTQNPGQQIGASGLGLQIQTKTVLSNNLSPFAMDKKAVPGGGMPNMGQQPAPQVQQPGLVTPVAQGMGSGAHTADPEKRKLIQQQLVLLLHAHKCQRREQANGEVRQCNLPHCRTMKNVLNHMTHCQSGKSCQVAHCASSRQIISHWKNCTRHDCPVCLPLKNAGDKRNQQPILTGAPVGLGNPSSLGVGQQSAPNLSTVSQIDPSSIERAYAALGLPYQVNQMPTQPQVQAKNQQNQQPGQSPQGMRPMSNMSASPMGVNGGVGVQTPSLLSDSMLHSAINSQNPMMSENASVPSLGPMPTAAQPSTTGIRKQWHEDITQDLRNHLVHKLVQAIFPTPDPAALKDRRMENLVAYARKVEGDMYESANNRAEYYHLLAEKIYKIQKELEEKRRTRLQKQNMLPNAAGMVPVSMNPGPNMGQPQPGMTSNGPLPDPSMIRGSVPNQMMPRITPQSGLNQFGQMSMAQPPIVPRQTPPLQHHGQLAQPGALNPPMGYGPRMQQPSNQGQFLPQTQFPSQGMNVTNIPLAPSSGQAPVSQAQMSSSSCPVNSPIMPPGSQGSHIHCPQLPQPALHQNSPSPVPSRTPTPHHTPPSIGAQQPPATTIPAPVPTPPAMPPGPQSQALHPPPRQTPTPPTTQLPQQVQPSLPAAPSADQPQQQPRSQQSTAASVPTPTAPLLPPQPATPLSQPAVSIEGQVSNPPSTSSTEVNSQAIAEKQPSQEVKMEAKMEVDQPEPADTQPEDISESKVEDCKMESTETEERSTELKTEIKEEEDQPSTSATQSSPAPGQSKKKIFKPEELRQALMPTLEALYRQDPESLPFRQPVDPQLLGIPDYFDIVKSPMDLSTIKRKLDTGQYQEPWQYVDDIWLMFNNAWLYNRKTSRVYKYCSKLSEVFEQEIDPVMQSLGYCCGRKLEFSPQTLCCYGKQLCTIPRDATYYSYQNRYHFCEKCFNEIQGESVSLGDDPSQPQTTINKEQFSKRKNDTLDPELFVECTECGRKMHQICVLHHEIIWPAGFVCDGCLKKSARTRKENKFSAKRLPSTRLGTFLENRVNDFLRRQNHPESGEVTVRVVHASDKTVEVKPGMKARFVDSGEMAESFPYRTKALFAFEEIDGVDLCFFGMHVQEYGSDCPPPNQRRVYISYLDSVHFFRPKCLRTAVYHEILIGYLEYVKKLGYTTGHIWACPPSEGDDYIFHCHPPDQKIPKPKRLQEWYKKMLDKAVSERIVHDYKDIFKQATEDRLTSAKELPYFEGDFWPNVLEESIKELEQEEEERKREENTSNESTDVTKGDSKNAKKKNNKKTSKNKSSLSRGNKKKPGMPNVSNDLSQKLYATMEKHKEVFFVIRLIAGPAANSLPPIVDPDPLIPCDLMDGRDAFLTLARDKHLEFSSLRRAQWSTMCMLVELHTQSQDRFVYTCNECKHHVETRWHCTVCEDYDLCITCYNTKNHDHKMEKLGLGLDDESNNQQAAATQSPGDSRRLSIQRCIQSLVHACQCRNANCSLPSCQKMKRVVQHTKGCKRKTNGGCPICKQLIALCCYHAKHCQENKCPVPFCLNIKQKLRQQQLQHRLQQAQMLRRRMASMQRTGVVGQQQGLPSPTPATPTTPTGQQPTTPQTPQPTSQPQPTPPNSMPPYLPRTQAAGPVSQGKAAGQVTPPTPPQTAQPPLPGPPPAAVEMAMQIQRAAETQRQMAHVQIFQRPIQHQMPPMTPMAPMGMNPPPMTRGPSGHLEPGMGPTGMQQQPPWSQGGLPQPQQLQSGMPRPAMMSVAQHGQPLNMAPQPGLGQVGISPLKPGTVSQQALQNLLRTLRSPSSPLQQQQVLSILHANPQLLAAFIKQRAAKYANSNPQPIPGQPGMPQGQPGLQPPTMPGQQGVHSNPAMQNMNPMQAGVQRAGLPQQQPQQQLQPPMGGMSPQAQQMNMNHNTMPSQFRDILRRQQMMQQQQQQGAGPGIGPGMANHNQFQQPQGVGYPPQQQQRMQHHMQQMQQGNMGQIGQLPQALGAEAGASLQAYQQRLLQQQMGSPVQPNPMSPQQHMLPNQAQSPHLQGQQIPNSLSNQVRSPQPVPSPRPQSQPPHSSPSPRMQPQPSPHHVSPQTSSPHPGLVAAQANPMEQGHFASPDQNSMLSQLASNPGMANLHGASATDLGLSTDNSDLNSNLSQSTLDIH

For `C[C@H](N(Cc1ccc(F)cc1)C(=O)CN1C(=O)O[C@@]2(CCc3cc(NC(=O)CCCCCCCCCCCNc4ccc5c(c4)C(=O)N(C4CCC(=O)NC4=O)C5=O)ccc32)C1=O)C(F)(F)F` (stereo partly drawn) [CPD 1, 12-((2-(2,6-dioxopiperidin-3-yl)-1,3-dioxoisoindolin-5-yl)amino)-N—((R)-3′-(2-((4-fluorobenzyl)((S)-1,1,1-trifluoropropan-2-yl)amino)-2-oxoethyl)-2′,4′-dioxo-2,3-dihydrospiro[indene-1,5′-oxazolidin]-5-yl)dodecanamide], which CBP degradation (CBP; after 48 hour) is on record?
The CBP degradation was “degradation of CBP was observed”.

What about the CBP level (CBP; first 36 hours) of the same compound?
Its CBP level is “without affecting the CBP level”.

What about the “EP300 degradation (proteomics)” value (EP300) of the same compound?
Its value is “selectively and significantly degraded”.

And the “growth inhibition compared with A485” value (U266 cells)?
The value was “outperformed inhibitor A485”.

And the “cell growth inhibition in CRBN k/o cell lines” value (CRBN k/o cell lines)?
Its value is “did not affect CRBN k/o cell lines”.

What about the “growth inhibition compared with A485” value (MM.1S cells) of the same compound?
Its value is “outperformed inhibitor A485”.
